From patent US4952689A, “3-(substituted propylidene)-2-azetidinone derivates for blood platelet aggregation” (Taisho Pharmaceutical Co., Ltd., priority 1988, dated 1990)

System: acute thrombocytopenia
Test: Inhibitory effect on acute thrombocytopenia in mice (ADP-induced)
Type: in vivo, male ICR mice
Conditions: 300 mg/kg by gavage 2 hours prior to ADP (1 mg/kg, tail vein); platelet count at 30 seconds after ADP
Method: Experiment [Inhibitory effect on acute thrombocytopenia in mice]
Ten male ICR mice weighing 20-30 g were used for each group. Under pentobarbital anaesthesia, adenosine diphosphate (ADP) dissolved in physiological saline in a dose of 1 mg/kg was injected into the tail vein and 20 μl of blood was collected from the femoral artery at 30 seconds after injection of ADP. Immediately after blood sampling, platelet counts were measured with an automatic blood cell counter (Sysmex CC-180A). Platelet count of normal group without injection of ADP was measured as well.
Test drugs [Compounds 2 and 3 (the compounds of the present invention) and Compound 1 (the comparative drug) in Table 1] were suspended in 5% gum arabic solution and administered by gavage in a dose of 300 mg/kg 2 hours prior to injection of ADP. As control group, 5% gum arabic solution without test drugs was administered.
Inhibition ratio of acute thrombocytopenia was calculated by the following formula. [formula]
Note: A: Platelet count of the group treated with both test drug and ADP
B: Platelet count of control group with both 5% gum arabic solution and ADP
C: Platelet count of normal group without injection of ADP

## COc1ccc(N2C(=O)/C(=C/C(C)=NOCCCN3CCOCC3)C2c2ccccc2)cc1 (stereo not drawn) [Compound 2, (E)-1-(4-Methoxyphenyl)-3-{2-[3-(4-morpholinyl)propoxyimino]propylidene}-4-phenyl-2azetidinone]
  Inhibition Ratio: 54.66%

## COc1ccc(N2C(=O)/C(=C/C(C)=NOCC(=O)O)C2c2ccccc2)cc1 (stereo not drawn) [Compound 1, (E)-1-(4-Methoxyphenyl)-3-(2-carboxymethoxyiminopropylidene)-4-phenyl-2-azetidinone, reference compound]
  Inhibition Ratio: 12.00%

## COc1ccc(N2C(=O)/C(=C/C(C)=NOCCCN3CCN(c4ccccn4)CC3)C2c2ccccc2)cc1 (stereo not drawn) [Compound 3, (E)-1-(4-Methoxyphenyl)-3-[2-[3-{1-[4-(2-pyridyl)piperadinyl]}propoxyimino]-propylidene]-4-phenyl-2-azetidinone]
  Inhibition Ratio: 57.61%
